# Reference: patent US8691768B2, “Methods of determining delta opioid receptor subtypes” (The Regents of the University of California, priority 2008, dated 2014)
# Tests used:
# [1] = tested on: Lewis rats, ventral tegmental area (VTA); assay: Ethanol self-administration (two-bottle continuous access) after microinjection into the VTA; assay type: in vivo
# Experimental: Male Lewis rats (Harlan Laboratories, Indianapolis, Ind.) weighing between 275-300 g were individually housed in a temperature controlled colony room (21° C.) maintained on a reversed light/dark cycle 12L:12D cycle (lights off at 10 A.M., lights on at 10 P.M.). All experiments were performed during the dark portion of the cycle. Food and water was provided ad libitum.
# Ethanol was administered via a two-bottle continuous access, free-choice paradigm in which one bottle contained 10% ETOH (v/v) and the other bottle contained water. Sucrose was never added to the ethanol solution. The amount of ETOH and water consumed was measured at the same time daily (10 A.M.). […] Animals were weighed daily. Bottles were identical and their positions were counterbalanced and rotated daily. Change in drinking was calculated by subtracting the amount of drinking (mg/kg) on the day following treatment from the amount of drinking (mg/kg) on the day prior to treatment.
# Animals were anesthetized and maintained on isoflurane (0.5 l/min) as needed for the duration of surgery. Animals were placed in a stereotaxic frame and were implanted with bilateral 26-gauge stainless steel chronic guide cannulas (Plastincs One, Roanoke, Va.) into the VTA (AP, −5.8; ML, ±0.5; DV, −7.0) based on the atlas of Paxinos and Watson (1997, The rat brain in sterotaxic coordinates, compact, Ed 3. San Diego: Academic). Cannulas were secured to the skull with dental cement. At the end of the surgical procedure, animals were treated with penicillin and topical antibiotics. A stainless steel dummy cannula (Plastics One) was inserted into each guide cannula and remained in place when the guide cannulas were not in use. Animals were allowed a 1 week recovery period before behavioral testing.
# Each injection was made using a 1 μl syringe (Hamilton, Reno, Nev.) attached to 20 cm of PE 50 tubing connected to a 33-gauge injection cannula (Plastics One). Microinjections of 0.5 μl volumes were given at a rate of 0.5 μl/min using a syringe pump (kd Scientific, Hollister, Mass.) into each side of the VTA, except for bicuculline injections, where 0.25 μl was injected per side. Injection cannulas extended 2 mm beyond guide cannulas and were left in place for 1 min following microinjections to minimize the backflow of drug solution. In addition to drug microinjections, physiological saline microinjections were made in every rat to measure the effect of the injection manipulation alone on drinking Drug injections were randomized and counterbalanced. Change in drinking due to drug microinjections was calculated by comparing both the previous day's consumption (“baseline”) and to saline injection. At the conclusion of the experiment, animals were anesthetized with pentobarbital and perfused intracardially through the ascending aorta with 0.1 M phosphate buffered saline followed by 10% formalin. Brains were sectioned coronally at 50 μm, mounted and stained with cresyl violet. Only animals with confirmed injection sites within the VTA were included. No behavioral differences were observed between animals with anterior compared with posterior cannula placements.
# For behavioral experiments, DPDPE (10mM; Sigma, St. Louis, Mo.), TIPP-ψ (5 μM; NIDA, Bethesda, Md.), Bicuculline (1 mM; Sigma), DAMGO (0.2 mM; Sigma), and CTOP (10 mM; Tocris, Ellisville, Mo.) were prepared in physiological saline for microinjection into the VTA. For electrophysiology, all drugs were applied by bath perfusion. Stock solutions were made and diluted in artificial CSF immediately before application. All chemicals were obtained from Sigma or Tocris except TIPP-ψ, which was acquired from NIDA.
# Results are presented as mean±SEM where appropriate. For behavioral data, drinking was analyzed using 24 h time points. Raw drinking data were used for paired Student's t test comparisons probing drug effects on drinking compared with baseline or saline injections, a more conservative comparison than analyzing normalized data. […]
# [2] = tested on: GABAA IPSCs in VTA neurons; assay: Slice electrophysiology, whole-cell patch-clamp of GABAA IPSCs in VTA neurons; assay type: cell-based, Lewis rats
# [3] = tested on: Lewis rats; assay: Cocaine self administration after VTA microinjection; assay type: in vivo; conditions: 10 mM into VTA, compared to saline
# Experimental: Lewis rats (Charles River, Mass.) weighing 275-350 g at the beginning of behavioral testing are housed and treated as previously described. Prior to cocaine self administration, rats are anesthetized with a ketamine-xylazine-acepromazine mixture and implanted with a chronic jugular catheter using methods previously described (Caine & Koob, 1993). Following surgery, rats receive daily administration of the antibiotic ticarcillin (20 mg/day at 100 mg/ml; GlaxoSmithKline, Research Triangle Park, NC). Catheter patency is tested by infusion of the fast-acting barbiturate Brevital (methohexital sodium; 1 mg/0.1 ml; Lilly, Indianapolis, Ind.). Self-administration training is conducted in operant-conditioning chambers enclosed within sound-attenuating cabinets (MED Associates, St. Albans, Vt.). […] Presses on the active lever result in either a 120 microL infusion of cocaine over a 4-s period via a Razel pump (Razel Scientific Instruments, Fairfax, Vt.) or delivery of a 45-mg food pellet (Bio-Serv, Frenchtown, N.J.). […] Presses on the active lever result in a 20-s time-out, signaled by illumination of the stimulus light and retraction of the active lever. […] Following training, rats are microinjected with either 10 mM DPDPE or saline directly into the VTA prior to cocaine self-administration and active lever presses are recorded.
# [4] = 1 μM, VTA neurons from drinking animals
substance,measurement,setting,value
"(2-D-penicillamine, 5-D-penicillamine)-enkephalin [DPDPE]",drinking (EtOH),"[1]; 10 mM into VTA, compared with control saline microinjections in the same rats",also evident
same,drinking (EtOH),"[1]; 10 mM into VTA, high drinkers",only at trend level
same,drinking (EtOH),"[1]; 10 mM into VTA, low drinkers",particularly prominent
same,relation between baseline EtOH consumption and % baseline drinking following administration,"[1]; 10 mM into VTA, n=15",inverse correlation
same,drinking (EtOH),"[1]; 10 mM microinjected into VTA, all animals, compared with the day before treatment",decreased drinking
same,relation between DPDPE induced inhibition of evoked and spontaneous IPSCs and amount of EtOH consumed,[2],inverse correlation
same,evoked IPSCs,[2]; [4],significantly inhibited
same,spontaneous IPSCs,[2]; [4],significantly inhibited
same,GABA release onto VTA neurons,"[2]; abstinent animals, 3 and 7 days off bottles",maintained its ability to inhibit GABA release
same,GABAA IPSCs,"[2]; age-matched, ethanol-naive, control animals",no effect
same,saturating dose,"[2]; dose-response in the animal groups, in presence of 1 μM CTAP",1 µM
same,GABA release in the VTA,[2]; low drinkers,Decreases GABA Release
same,cocaine self administration (active lever presses),[3],decrease cocaine self administration
